Experimental data as given in publication PMC8868346, “Novel Series of Dual NRF2 Inducers and Selective MAO-B Inhibitors for the Treatment of Parkinson’s Disease” (Antioxidants, 2022).
Where two headings read alike, the source gives them in different places.

Columns and labels:
[1] = tested on: NRF2; assay: NRF2 induction, luciferase activity in AREc32 reporter cells; format: cell-based, human; settings: Homo sapiens; AREc32 cells, 24 h; concentration required to double luciferase activity compared to basal; read-out: CD (µM) NRF2 Induction
Method: Cells were used from the third to twelfth passage.
AREc32 cells were stably transfected with the plasmid pGL-8xARE that implements 8 copies of the antioxidant response element (ARE) sequences followed by luciferase reporter gen. Therefore, NRF2 induction can be related to the activation of ARE sequences by measuring luciferase activity in terms of luminescence production. For NRF2 induction experiments, cells were plated in 96 white flat bottom well plates (20,000 cells/well). After 24 h, cells were incubated with selected compounds at the desired concentrations in duplicates for 24 h. The Luciferase Assay System (Promega E1500) was used according to provider protocol and luminescence was quantified in an Orion II microplate luminometer (Berthold, Germany). Fold induction of luciferase activity was normalized to basal conditions. Data were expressed as CD values, which means the concentration needed to duplicate the luciferase activity compared to basal conditions. CD values were calculated from dose–response curves fitted by non-linear regression for each compound after logarithmic transformation of the data using GraphPad Prism 8.0 software.

[2] = tested on: IL-1β; assay: IL-1β levels by ELISA in LPS stimulated primary mixed glial cultures; format: cell-based, rat; settings: compound 10 μM; LPS 1 µg/mL 18 h
Method: Cells were cultured for 7–10 days before treatment.
Primary glial cells were pre-treated with compounds at the desired concentration for 24 h. Then, treatments were removed and glial cells were incubated with lipopolysaccharide (LPS, 1 μg/mL; Sigma–Aldrich, Spain) in the presence of each compound at the desired concentration for 18 h. Nitrite production was then assessed by modified Griess assay. Briefly, 150 µL of each sample was mixed with 75 µL of 4,4′-diamino-diphenylsulfone (Dapsone) and 75 µL of N-(1-naphthyl)ethylenediamine (Neda). The mixture was incubated at room temperature for 5 min. […] Data were normalized to basal conditions, setting this value as 100% of nitrite production. EC50 values were calculated from dose–response curves obtained from representing percentage of nitrites reduction vs. compound concentration.
Supernatants obtained from mixed primary glial cell cultures were used to determine IL-1β levels by quantitative ELISA kits (Preprotech, R&D Systems-bioNova, Madrid, Spain) following the manufacturer’s instructions. Commercial solution of IL-1β was used to generate a standard curve for sample quantification. Absorbance was measured in a microplate reader SPECTROstar Nano (BMG Labtech) at 405 with 650 nm correction.

[3] = tested on: rat striatal slices; assay: Rat striatal slices exposed to rotenone: ROS production; format: cell-based; settings: compound 10 µM, rotenone 10 µM, 4 h
Method: Three- to four-month-old Sprague–Dawley rats were decapitated, the brain was removed, and the two brain hemispheres were separated. Each hemisphere was then cut into 300-µm coronal slices using a McIlwain Tissue Chopper (Cavey Laboratory Engineering, Surrey, UK) and separated in a previously oxygenated (95% O2 and 5% CO2) ice-cold Krebs’s dissection buffer (120 mM of NaCl; 2 mM of KCl; 26 mM of NaHCO3; 1.18 mM of KH2PO4; 10 mM of MgSO4; 0.5 mM of CaCl2; 11 mM of glucose; and 200 mM sucrose at pH 7.4) using a Leica SE6 microscope (Leica, Madrid, Spain). Striatum-containing slices were selected and immediately incubated for stabilization in dissection buffer without sucrose, bubbled with 95% O2 and 5% CO2 for 45 min at 34 °C, allowing slices to recover from slicing injury. […] Finally, cell death and the ROS production were measured.
ROS quantification was performed using the fluorescent probe 2,7′-dichlorodihydrofluorescein diacetate (H2DCFDA, λEx/Em = 495/529 nm; Thermo Fisher, Madrid, Spain). Cell death quantification was performed using the fluorescent probe propidium iodide (PI, λEx/Em = 535/617 nm; Thermo Fisher, Madrid, Spain). […] Fluorescence from striatum slices was then recorded for H2DCFDA (λEx/Em = 495/529 nm), PI (λEx/Em = 535/617 nm), and Hoechst (λEx/Em = 350/461 nm), in an inverted Nikon Eclipse T2000-U microscope (Nikon, Tokyo, Japan). […]

[4] = tested on: Mixed primary glial cultures; assay: Cytotoxicity in mixed primary glial cultures (MTT); settings: Sprague-Dawley, rat
Method: Mixed primary glial cultures were obtained from cerebral cortex of 2–5-day-old Sprague–Dawley rats. Blood vessels and meninges were first removed in Hank’s balanced salt solution (HBSS) and then forebrains were dissociated in DMEM/F12 medium. After mechanical dissociation, filtering, and centrifugation at 800 rpm for 10 min, cells were plated at a density of 30,000 cells/well in DMEM/F12 medium with 20% (v/v) FBS and 1% penicillin/streptomycin (10,000 units). […] After 5 days, medium was substituted by DMEM/F12 medium with 10% (v/v) FBS. Cells were cultured for 7–10 days before treatment.
(§1) Basal absorbance was set to 100% and results were normalized to basal conditions.
(§2) Cytotoxicity. LD50 values in several cell cultures employed
(§3) Table S2. Cytotoxicity elicited by 10-18 compounds in SH-SY5Y, AREc32 and mixed pr imary glial cultures. Viability was measured as MTT reduction in presence of increasing concentrations of der ivatives. LD50 values were calcula ted from dose-response curves. Data are expr essed as mean ± SEM of at least 3 independent experiments.
(§4) 1.3. PAMPA control compounds (BBB permeability)
(§5) Table S3. Pr ediction of the BBB passive permeability of control compounds

[5] = tested on: SH-SY5Y cells; assay: Neuroprotection in SH-SY5Y against 6-hydroxydopamine (MTT); format: cell-based, human; settings: 6-OHDA 100 µM; compound 0.1 µM, 24 h pre- and 24 h co-incubation
Method: (§6) Cells were seeded at a density of 60,000 cells/well in 96-well transparent plates for 24 h. Then cells were pre-incubated with the corresponding compound at 0.1 μM. After 24 h, the medium was removed and replaced with 1% (v/v) FBS media containing the corresponding compound at 0.1 µM and the selected toxic stimuli, namely a mixture of rotenone and oligomycin A (R/O; 30/10 μM, respectively; Sigma–Aldrich, Spain) or 6-hydroxydopamine (100 µM; Sigma–Aldrich, Spain). […].

[6] = tested on: SH-SY5Y cells; assay: Neuroprotection in SH-SY5Y against rotenone/oligomycin A (MTT); format: cell-based, human; settings: compound 0.1 µM, 24 h pre- and 24 h co-incubation
Method: as §6

[7] = tested on: SH-SY5Y; settings: human
Method: They were recovered by centrifugation at 800 rpm for 10 min. Cells from the third to twelfth passage were seeded at a density of 80,000 cells/well in 96-well plates for the neuroprotection studies.
as §1, §2, §3, §4, §5

[8] = tested on: AREc32
Method: AREc32 cells, shared by CR Wolf, were grown in Dulbecco’s modified Eagle medium (DMEM) with GlutaMAX (Gibco, Invitrogen, Madrid, Spain), supplemented with 10% (v/v) filtrated fetal bovine serum (FBS; Gibco, Invitrogen, Madrid, Spain), 1% of antibiotics penicillin-streptomycin, and geneticin (0.8 mg/mL G418; Gibco, Invitrogen, Madrid, Spain). […] They were recovered by centrifugation at 800 rpm for 10 min. Cells were used from the third to twelfth passage.
as §1, §2, §3, §4, §5

[9] = biological target: T1, MAO-B (Homo sapiens, UniProt P27338); assay: MAO-B reversibility assay (pre-incubation times); format: biochemical; settings: 0, 15, 30 min pre-incubation at […] IC50
T1 construct: purchased Sigma–Aldrich
T1 sequence (P27338 1-520): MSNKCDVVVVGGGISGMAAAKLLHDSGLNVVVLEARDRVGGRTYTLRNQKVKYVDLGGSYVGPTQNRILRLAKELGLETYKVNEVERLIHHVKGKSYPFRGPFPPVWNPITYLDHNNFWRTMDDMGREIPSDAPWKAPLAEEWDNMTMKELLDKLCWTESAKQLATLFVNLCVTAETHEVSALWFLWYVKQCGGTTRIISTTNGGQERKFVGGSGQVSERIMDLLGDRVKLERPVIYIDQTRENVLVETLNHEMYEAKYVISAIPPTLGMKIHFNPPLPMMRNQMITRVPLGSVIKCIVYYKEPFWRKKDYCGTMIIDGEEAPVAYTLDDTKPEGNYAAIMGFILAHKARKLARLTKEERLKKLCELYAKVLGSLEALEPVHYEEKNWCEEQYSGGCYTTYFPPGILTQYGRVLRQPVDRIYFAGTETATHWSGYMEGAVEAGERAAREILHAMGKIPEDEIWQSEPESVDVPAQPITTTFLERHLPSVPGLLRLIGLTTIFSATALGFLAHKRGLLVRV

[10] = Oxygen radical absorbance capacity (ORAC) assay; settings: Trolox equivalents, AAPH, fluorescein
Method: The ORAC test was performed to evaluate the oxygen free radical scavenger capacity of the compounds. […] Compounds at desired concentrations (0.03, 0.1, 0.3, 1, 3, and 10 µM) were diluted in phosphate-buffered saline (PBS; 10 mM, pH 7.4) at 37 °C and placed in a 96 black flat bottom well plate. […] A fluorescence measurement was done first to determine the basal signal. Then, 25 µL of 2, 2′-azobis-amidinopropane dihydrochloride (AAPH) (12 mM final concentration) was quickly added. All samples were measured in duplicates in three different experiments. […] Results were expressed in terms of Trolox equivalents (T.eq.), obtained by plotting net AUC versus compound concentration, then performing linear regression and normalizing slopes of the compounds considering Trolox as reference.

[11] = tested on: MAO-A; settings: read-out: IC50 for MAO-A; cited from earlier work
[12] = tested on: blood-brain barrier (passive diffusion); assay: Blood–brain barrier permeation assay (PAMPA); settings: PAMPA, pH 7.4
[13] = Blood–brain barrier permeation assay (PAMPA); settings: BBB permeability class from Pe
[14] = tested on: MAO-B; settings: read-out: IC50 for MAO-B; cited from earlier work
[15] = biological target: MAO-B; settings: cited from earlier work
[16] = tested on: nitrite production in mixed primary glial cultures; settings: read-out: EC50 Nitrite Reduction; positive control; cited from earlier work

COc1ccc2[nH]cc(CCNC(C)=O)c2c1 [Melatonin, reference compound]
EC50 [1]: > 30 µM
IL-1β Levels % Reduction (10 μM) [2]: 31.6 ± 7.00%
ROS levels (H2DCFDA), rotenone model [3]: reduced
LD50 (µM) Mixed primary glial cultures [4]: > 30 µM
6-OHDA Protection (%) [5]: 88.8%
R/O (30/10 µM) Protection (%) [6]: 22.3%
LD50 (µM) SH-SY5Y [7]: > 100 µM
LD50 (µM) AREc32 ([8]; human): > 30 µM

C#CCN[C@@H]1CCc2ccccc21 [Rasagiline, reference compound]
MAO-B inhibition reversibility [9]: Irreversible
ORAC (T. eq.) [10]: 0.04 ± 0.02 T. eq.
ORAC (T. eq.) ([10]; listed as rasagiline): no effect
6-OHDA Protection (%) [5]: 77.0%
R/O (30/10 µM) Protection (%) [6]: 28.9%
Papp at 4 h, 100 µM [12]: 23.5 ± 4.2 ×10⁻⁶ cm/s
PAMPA Prediction [13]: CNS + (CNS + (high BBB permeability): Pe (10^−6 cm s^−1) > 4.0)
LD50 (µM) AREc32 ([8]; MTT reduction): > 30 µM

C(=CCc1ccccc1)Cc1ccccc1 [1,4-diphenyl-2-butene]
Ki [15]: 35000 nM

C[S+]([O-])CCCCN=C=S (centres unmarked) [Sulforaphane]
EC50 [16]: 1400 ± 300 nM
